The structures appear in SMILES notation.

The source of these data is ChEMBL document CHEMBL3351345, “Design, synthesis, and structure-activity relationships of novel benzothiazole derivatives bearing the ortho-hydroxy N-carbamoylhydrazone moiety as potent antitumor agents” (Eur J Med Chem, 2014).

For assay [1], the target named is T1, Caspase-3 (Homo sapiens, UniProt P42574).
T1 sequence (P42574 whole entry): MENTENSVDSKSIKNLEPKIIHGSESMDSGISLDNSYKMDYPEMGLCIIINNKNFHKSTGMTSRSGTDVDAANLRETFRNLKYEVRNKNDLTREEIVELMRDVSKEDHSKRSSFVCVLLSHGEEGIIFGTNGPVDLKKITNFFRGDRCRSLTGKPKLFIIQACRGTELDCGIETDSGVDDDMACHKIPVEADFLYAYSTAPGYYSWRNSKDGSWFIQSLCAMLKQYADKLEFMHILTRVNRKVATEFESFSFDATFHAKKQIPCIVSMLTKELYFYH
As to the kind of experiment: Induction of procaspase 3 activity (unknown origin) using Ac-DEVD-pNa as substrate after 2 hrs.

In assay [2] the test system is HT-29. As to the kind of experiment: Antiproliferative activity against human HT-29 cells after 72 hrs by MTT assay. It counts as functional, cell-based. Conditions: HT-29, 72 h.
Assay [3] deals with NCI-H226. Put plainly: Antiproliferative activity against human NCI-H226 cells after 72 hrs by MTT assay. It counts as functional, cell-based. The conditions noted are these: NCI-H226, 72 h.
Assay [4] can be described thus: Antiproliferative activity against human MKN45 cells after 72 hrs by MTT assay. It counts as functional, cell-based. The conditions noted are these: MKN-45, 72 h.
Assay [5] relates to SK-N-SH. As to the kind of experiment: Antiproliferative activity against human SK-N-SH cells after 72 hrs by MTT assay. It counts as functional, cell-based.
The subject of assay [6] is MDA-MB-231. Put plainly: Antiproliferative activity against human MDA-MB-231 cells after 72 hrs by MTT assay. The conditions noted are these: MDA-MB-231, 72 h.
Assay [7] deals with T2, Caspase-3 (Homo sapiens) (UniProt P42574).
T2 sequence (whole entry): T1 sequence (P42574 whole entry)
Put plainly: Ratio of PAC1 EC50 to compound EC50 for procaspase 3 activity (unknown origin).

The compound `CC1CCN(Cc2ccc3nc(NC(=O)N/N=C/c4ccc(OCc5ccc(C(C)(C)C)cc5)cc4O)sc3c2)CC1` had an EC50 in assay [1] of 2420 nM. The IC50 amounted to 870 nM in assay [2]; 180 nM in assay [3]; 170 nM in assay [4]; 270 nM in assay [5]; 560 nM in assay [6].

As for `CCN(CC)Cc1ccc2nc(NC(=O)N/N=C/c3ccc(OCc4ccc(C(C)(C)C)cc4)cc3O)sc2c1`, the midpoint of the response in assay [1], the EC50, lay at 1420 nM. In assay [7], the Ratio EC50 came to 2.9. For the same compound, the IC50 came to 770 nM in assay [2]; 160 nM in assay [3]; 500 nM in assay [4]; 480 nM in assay [5]; 980 nM in assay [6].

For the compound `CCN(CC)Cc1ccc2nc(NC(=O)N/N=C/c3ccc(OCc4ccc(Cl)cc4)cc3O)sc2c1`, the EC50 in assay [1] was 4960 nM. In addition, the IC50 amounted to 1020 nM in assay [2]; 430 nM in assay [3]; 540 nM in assay [4]; 740 nM in assay [5]; 610 nM in assay [6].

As to `C=CCc1cccc(/C=N/NC(=O)CN2CCN(Cc3ccccc3)CC2)c1O` [PAC-1], the EC50 in assay [1] was determined as 4080 nM. The IC50 turned out to be 1360 nM in assay [2]; 1020 nM in assay [3]; 2610 nM in assay [4]; 3060 nM in assay [5]; 4800 nM in assay [6].

Regarding `CC(C)(C)c1ccc(COc2ccc(/C=N/NC(=O)Nc3nc4ccc(N5CCOCC5)cc4s3)c(O)c2)cc1`, in assay [1], the response was half-maximal at 18200 nM (EC50). Moreover, the half-inhibitory concentration (IC50) in assay [2] was 920 nM; in assay [3], 240 nM; in assay [4], 460 nM; in assay [5], 920 nM; in assay [6] it was 1040 nM.

In assay [1], `CC1CCN(Cc2ccc3nc(NC(=O)N/N=C/c4ccc(OCc5cccc(Cl)c5)cc4O)sc3c2)CC1` returned an EC50 of 4260 nM. Further, the IC50 amounted to 1720 nM in assay [2]; 360 nM in assay [3]; 670 nM in assay [4]; 340 nM in assay [5]; 1120 nM in assay [6].

Consider `O=C(N/N=C/c1ccc(OCc2ccc(Cl)cc2)cc1O)Nc1nc2ccc(N3CCOCC3)cc2s1`, for which the IC50 in assay [2] was determined as 1.8 nM; in assay [3] it was 260 nM; in assay [4], 290 nM; in assay [5], 1370 nM; in assay [6], 4460 nM.

With `Cc1ccc(COc2ccc(/C=N/NC(=O)Nc3nc4ccc(N5CCOCC5)cc4s3)c(O)c2)cc1`, the IC50 in assay [2] came out at 1580 nM; in assay [3], 530 nM; in assay [4], 750 nM; in assay [5], 2510 nM; in assay [6], 19300 nM.

In assay [1], `CCN(CC)Cc1ccc2nc(NC(=O)N/N=C/c3ccc(OCc4csc(Cc5ccc6c(c5)OCO6)n4)cc3O)sc2c1` had an EC50 of 250 nM. For the same compound, the Ratio EC50 in assay [7] is 16. For the same compound, the IC50 is 720 nM in assay [2]; 140 nM in assay [3]; 510 nM in assay [4]; 480 nM in assay [5]; 550 nM in assay [6].

For the compound `CN(C)Cc1ccc2nc(NC(=O)N/N=C/c3ccc(OCc4cccc(Cl)c4)cc3O)sc2c1`, the IC50 came out at 2940 nM in assay [2]; 360 nM in assay [3]; 190 nM in assay [4]; 1190 nM in assay [5]; 540 nM in assay [6].
